Data from patent publication US20200079757A1, “COMPOUNDS FOR THE TREATMENT OF RESPIRATORY DISEASES” (THE UNIVERSITY OF MELBOURNE, priority 2017, published 2020).

Tests used:
[1] = tested on: Col 1A gene expression in BEAS-2B cells; test: TNFα and TGFβ induced Col 1A gene expression in BEAS-2B cells (RT-qPCR); assay type: cell-based
Method: The primary assay for the activity of the novel CK1δ/ε inhibitors is the modulation of gene expression in the airway epithelial cell line, the BEAS-2B cells. The assay is conducted under several conditions. Generally, TGF-β or TNF-α is used to elicit fibrogenic or inflammatory genes, respectively. The agents are added at a concentration of 10 μM, or at the indicated concentrations for a period of 30 min prior to the addition of TGF-β/TNF-α which are incubated for a further 20 hours before the addition, in some experiments of the glucocorticoid, dexamethasone (Dex, 30 nM) for the final 4 hours of the experiment, prior to harvest of cellular RNA to measure by RT-qPCR the levels of mRNA of marker genes for inflammation and fibrogenesis. The inhaled corticosteroid (ICS), budesonide is also used in some experiments. Furthermore, the supernatants are harvested at the end of the incubation periods in selected experiments to measure the levels of CSF-2 or IL-8 by ELISA as described in (Tran et al. (2005) British Journal of Pharmacology, 145, 123-131).
Prior to experimentation, BEAS-2B and A549 cells were incubated in serum-free DMEM containing 0.25% bovine serum albumin (BSA) and insulin-transferrin-selenium—containing supplement (Monomed A; CSL, Parkville, Melbourne, Australia). Where indicated, cells were treated with one of the series of synthesised compounds (0.3-10 μM) prior to exposure to 100 pM TGF-β1 (R&D Systems, Minneapolis, Minn.) or 300 pM bFGF (Promega, Madison, Wis.).
Total RNA was extracted from cultured cells using illustra RNAspin Mini RNA Isolation Kit (GE Healthcare). RNA extracts were reverse-transcribed into cDNA using High-Capacity RNA-to-cDNA Kit (Applied Biosystems). Real-time PCR was then performed using a QuantStudio 6 Flex Real-Time PCR System using iTaq Universal SYBR green supermix and the following thermal protocol: 50° C. (2 min), 95° C. (10 min), then 40 cycles of 95° C. (15 sec), 60° C. (1 min). The threshold cycle (CT) values determined for target genes were normalized against those obtained for 18S ribosomal RNA (18S rRNA), which was included as internal control. The generation of specific PCR products was confirmed by dissociation curve analysis.

[2] = tested on: SCNN1A gene expression in BEAS-2B cells; test: TGF-β-induced suppression of dexamethasone-induced SCNN1A gene expression in BEAS-2B cells; assay type: cell-based; conditions: for SCNN1A mRNA level, Dex / SCNN1A mRNA level, TGF-β / SCNN1A mRNA level, TGF-β/Dex / SCNN1A mRNA level, vehicle (no stimulus): BEAS-2B
Method: The primary assay for the activity of the novel CK1δ/ε inhibitors is the modulation of gene expression in the airway epithelial cell line, the BEAS-2B cells. The assay is conducted under several conditions. Generally, TGF-β or TNF-α is used to elicit fibrogenic or inflammatory genes, respectively. The agents are added at a concentration of 10 μM, or at the indicated concentrations for a period of 30 min prior to the addition of TGF-β/TNF-α which are incubated for a further 20 hours before the addition, in some experiments of the glucocorticoid, dexamethasone (Dex, 30 nM) for the final 4 hours of the experiment, prior to harvest of cellular RNA to measure by RT-qPCR the levels of mRNA of marker genes for inflammation and fibrogenesis. The inhaled corticosteroid (ICS), budesonide is also used in some experiments. Furthermore, the supernatants are harvested at the end of the incubation periods in selected experiments to measure the levels of CSF-2 or IL-8 by ELISA as described in (Tran et al. (2005) British Journal of Pharmacology, 145, 123-131). Prior to experimentation, BEAS-2B and A549 cells were incubated in serum-free DMEM containing 0.25% bovine serum albumin (BSA) and insulin-transferrin-selenium—containing supplement (Monomed A; CSL, Parkville, Melbourne, Australia). Where indicated, cells were treated with one of the series of synthesised compounds (0.3-10 μM) prior to exposure to 100 pM TGF-β1 (R&D Systems, Minneapolis, Minn.) or 300 pM bFGF (Promega, Madison, Wis.). Total RNA was extracted from cultured cells using illustra RNAspin Mini RNA Isolation Kit (GE Healthcare). RNA extracts were reverse-transcribed into cDNA using High-Capacity RNA-to-cDNA Kit (Applied Biosystems). Real-time PCR was then performed using a QuantStudio 6 Flex Real-Time PCR System using iTaq Universal SYBR green supermix and the following thermal protocol: 50° C. (2 min), 95° C. (10 min), then 40 cycles of 95° C. (15 sec), 60° C. (1 min). The threshold cycle (CT) values determined for target genes were normalized against those obtained for 18S ribosomal RNA (18S rRNA), which was included as internal control. The generation of specific PCR products was confirmed by dissociation curve analysis. In FIG. 1, the effects of SS9-010 are contrasted with those of PF670462 in an assay in BEAS-B cells measuring the induction of the glucocorticoid-regulated gene, SCNN1A encoding the protein epithelial sodium channel alpha subunit. Serum-starved BEAS-2B cells were treated with CK1δ/ε inhibitor PF670462 (1, 3, 10 μM) or SS9-010 (1, 3, 10 μM) 30 min prior to TGF-β1 (40 pM) for 24 hours, then stimulated with dexamethasone (30 nM) for 4 hours. RNA was then extracted and analyzed by RT-qPCR. Data are presented as mean±SEM for n=4 independent experiments. The potency of PF670462 and SS9-010 were similar.

SMILES	Col1A mRNA level, TGF-β ([1]; agent 3 μM) [fold control]	Col1A mRNA level, TNF-α (n = 2) ([1]; agent 3 μM) [fold control]	Col1A mRNA level, vehicle (no stimulus) ([1]; agent 3 μM)	Col1A mRNA level, TGF-β ([1]; agent 10 μM) [fold control]	Col1A mRNA level, TNF-α (n = 2) ([1]; agent 10 μM) [fold control]	Col1A mRNA level, vehicle (no stimulus) ([1]; agent 10 μM) [fold control]	SCNN1A mRNA level, Dex ([2]; agent 3 μM) [fold control]	SCNN1A mRNA level, TGF-β ([2]; agent 3 μM) [fold control]	SCNN1A mRNA level, TGF-β/Dex ([2]; agent 3 μM) [fold control]	SCNN1A mRNA level, vehicle (no stimulus) ([2]; agent 3 μM) [fold control]	SCNN1A mRNA level, Dex ([2]; agent 10 μM) [fold control]	SCNN1A mRNA level, TGF-β ([2]; agent 10 μM) [fold control]	SCNN1A mRNA level, TGF-β/Dex ([2]; agent 10 μM) [fold control]	SCNN1A mRNA level, vehicle (no stimulus) ([2]; agent 10 μM) [fold control]	potency compared with PF670462, induction of glucocorticoid-regulated gene SCNN1A ([2]; BEAS-2B, 1, 3, 10 μM, TGF-β1 40 pM 24 h, dexamethasone 30 nM 4 h)
Cl.Nc1nccc(-c2c(-c3ccc(F)cc3)ncn2C2CCCCC2)n1 [PF670462, 4-(1-Cyclohexyl-4-(4-fluorophenyl)-1H-imidazol-5-yl)pyrimidin-2-amine hydrochloride, reference compound]	1.91 ± 0.32	0.52	0.47 ± .04 fold control	1.53 ± 0.33	0.65	0.65 ± 0.02	3.36 ± 0.25	0.91 ± 0.08	2.56 ± 0.08	1.11 ± 0.10					
CCCCCCCCN1CCC(n2cnc(-c3ccc(F)cc3)c2-c2ccnc(N)n2)CC1 [SS8-058, 4-(4-(4-Fluorophenyl)-1-[1-octylpiperidin-4-yl]-1H-imidazol-5-yl)pyrimidin-2-amine]				9.68 ± 1.25	1.11	0.91 ± 0.19					6.57	0.91	3.77	2.62	
CNc1nccc(-c2c(-c3ccc(F)cc3)ncn2C2CCCCC2)n1 [SS9-010, 4-(1-Cyclohexyl-4-(4-fluorophenyl)-1H-imidazol-5-yl)-N-methylpyrimidin-2-amine]				1.09 ± 0.10	0.37	0.30 ± 0.02	3.77 ± 0.33	0.67 ± 0.03	2.77 ± 0.31	1.14 ± 0.05					similar
